pIC50: −log10 of the molar value. Ends that are not written are not given here.
Biological target: HLA-B7 (B*0702) (Homo sapiens, UniProt P01889)
Assay: HLA-B7 (B*0702) peptide binding, competition with radiolabeled SS 5-13a (L7→Y) peptide
Settings: purified HLA-B7

Molecule	pIC50
VPISHLEIL [MAGE2.170E7]	6.73
VPISHLGIL [MAGE2.170G7]	6.98

Further lines, results first:

pIC50	Molecule
7.12	VPISHLHIL [MAGE2.170H7]
7.16	VPISHLMIL [MAGE2.170M7]

System: human PBMC CTL; 624mel tumor cell line
Assay: Primary in vitro CTL induction from human PBMC with MAGE3.112 or analogs
Settings: IFNγ against .221A2.1 cells with or without peptide

Molecule	peptide-specific CTL responses in human PBMC cultures stimulated with the peptide
CC[C@H](C)[C@H](NC(=O)[C@H](CCC(=O)O)NC(=O)[C@H](C)NC(=O)[C@@H](NC(=O)[C@@H](N)CCCCN)C(C)C)C(=O)N[C@H](C(=O)N[C@@H](Cc1c[nH]cn1)C(=O)N[C@@H](Cc1ccccc1)C(=O)N[C@@H](CC(C)C)C(=O)O)C(C)C [MAGE3.112 I5]	Peptide-specific CTL responses were detected
CC(C)C[C@H](NC(=O)[C@H](Cc1ccccc1)NC(=O)[C@H](Cc1c[nH]c2ccccc12)NC(=O)[C@@H](NC(=O)[C@H](CC(C)C)NC(=O)[C@H](CCC(=O)O)NC(=O)[C@H](C)NC(=O)[C@@H](NC(=O)[C@@H](N)CCCCN)C(C)C)C(C)C)C(=O)O [MAGE3.112 W7]	Peptide-specific CTL responses were detected

From US8741576B2, “Heteroclitic analogs and related methods” (Epimunne Inc., priority 1999, dated 2014)
